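All cell lines were grown in 96-well plates and treated with compound for 48 hours. Abbreviation: GI50, concentration required for 50% inhibition of growth.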 Calls of active or inactive are those of the source. No stated cut-off is given here; in the data, active = GI50 up to about 1.1 µM and inactive = higher.
Columns and labels:
Test in all cases: growth of human tumour cells (NCI), 48 h
TK-10 = system: TK-10
A549 = system: A549
HCT-116 = system: HCT-116
UACC-257 = system: UACC-257
HOP-92 = system: HOP-92
HCC 2998 = system: HCC 2998
SN12C = system: SN12C
MOLT-4 = system: MOLT-4
SW-620 = system: SW-620
IGROV-1 = system: IGROV-1
U-251 = system: U-251
RXF 393 = system: RXF 393
OVCAR-5 = system: OVCAR-5
HT-29 = system: HT-29
CCRF-CEM = system: CCRF-CEM
DMS-114 = system: DMS-114
ACHN = system: ACHN
M19-MEL = system: M19-MEL
HL-60 = system: HL-60
HOP-18 = system: HOP-18
HCT-15 = system: HCT-15
UACC-62 = system: UACC-62
OVCAR-3 = system: OVCAR-3
SK-MEL-5 = system: SK-MEL-5
OVCAR-4 = system: OVCAR-4
SK-MEL-28 = system: SK-MEL-28
SNB-19 = system: SNB-19
LXFL 529 = system: LXFL 529
KM-20L2 = system: KM-20L2
SF-539 = system: SF-539
EKVX = system: EKVX
KM12 = system: KM12
COLO 205 = system: COLO 205
K562 = system: K562
DMS-273 = system: DMS-273
LOX IMVI = system: LOX IMVI
HOP-62 = system: HOP-62
M14 = system: M14
SK-MEL-2 = system: SK-MEL-2
SR = system: SR
UO-31 = system: UO-31
OVCAR-8 = system: OVCAR-8
SF-268 = system: SF-268
SNB-75 = system: SNB-75
NCI-H23 = system: NCI-H23
SNB-78 = system: SNB-78
NCI-H460 = system: NCI-H460
RPMI-8226 = system: RPMI-8226
DLD-1 = system: DLD-1
NCI-H226 = system: NCI-H226
SF-295 = system: SF-295
SK-OV-3 = system: SK-OV-3
Malme-3M = system: Malme-3M
NCI-H522 = system: NCI-H522
A498 = system: A498
786-0 = system: 786-0
CAKI-1 = system: CAKI-1

**Q.** With `O=C(NNC(=O)c1nsc2ccccc12)c1ccc(Cl)cc1` as the compound, how does the GI50 (TK-10) read?
**A.** 26.3 µM (inactive)

**Q.** What about the GI50 (A549) of the same compound?
**A.** 21.7 µM (inactive)

**Q.** And the GI50 (HCT-116)?
**A.** 17.5 µM (inactive)

**Q.** And the GI50 (UACC-257)?
**A.** 21.2 µM (inactive)

**Q.** What about the GI50 (HOP-92) of the same compound?
**A.** 17.1 µM (inactive)

**Q.** What about the GI50 (HCC 2998) of the same compound?
**A.** 16.9 µM (inactive)

**Q.** What about the GI50 (SN12C) of the same compound?
**A.** 17.6 µM (inactive)

**Q.** What about the GI50 (MOLT-4) of the same compound?
**A.** 20.4 µM (inactive)

**Q.** What about the GI50 (SW-620) of the same compound?
**A.** 35.4 µM (inactive)

**Q.** And the GI50 (IGROV-1)?
**A.** 34.5 µM (inactive)

**Q.** And the GI50 (U-251)?
**A.** 16.7 µM (inactive)

**Q.** And the GI50 (RXF 393)?
**A.** 14 µM (inactive)

**Q.** What about the GI50 (OVCAR-5) of the same compound?
**A.** 20.4 µM (inactive)

**Q.** And the GI50 (HT-29)?
**A.** 20.3 µM (inactive)

**Q.** And the GI50 (CCRF-CEM)?
**A.** 19 µM (inactive)

**Q.** What about the GI50 (DMS-114) of the same compound?
**A.** > 10 µM (inactive)

**Q.** What about the GI50 (ACHN) of the same compound?
**A.** > 100 µM (inactive)

**Q.** What about the GI50 (M19-MEL) of the same compound?
**A.** 20 µM (inactive)

**Q.** And the GI50 (HL-60)?
**A.** 23.7 µM (inactive)

**Q.** What about the GI50 (HOP-18) of the same compound?
**A.** 10.2 µM (inactive)

**Q.** What about the GI50 (HCT-15) of the same compound?
**A.** 18.2 µM

**Q.** What about the GI50 (UACC-62) of the same compound?
**A.** > 10 µM (inactive)

**Q.** What about the GI50 (OVCAR-3) of the same compound?
**A.** 17.2 µM (inactive)

**Q.** And the GI50 (SK-MEL-5)?
**A.** 23.8 µM (inactive)

**Q.** What about the GI50 (OVCAR-4) of the same compound?
**A.** > 10 µM (inactive)

**Q.** What about the GI50 (SK-MEL-28) of the same compound?
**A.** 16.9 µM (inactive)

**Q.** And the GI50 (SNB-19)?
**A.** 19.1 µM (inactive)

**Q.** What about the GI50 (LXFL 529) of the same compound?
**A.** 19.7 µM (inactive)

**Q.** And the GI50 (KM-20L2)?
**A.** 19.8 µM (inactive)

**Q.** What about the GI50 (SF-539) of the same compound?
**A.** 17 µM (inactive)

**Q.** And the GI50 (EKVX)?
**A.** 18.2 µM (inactive)

**Q.** And the GI50 (KM12)?
**A.** 27.2 µM (inactive)

**Q.** What about the GI50 (COLO 205) of the same compound?
**A.** 23.7 µM (inactive)

**Q.** And the GI50 (K562)?
**A.** 19.1 µM (inactive)

**Q.** What about the GI50 (DMS-273) of the same compound?
**A.** 8.11 µM (inactive)

**Q.** And the GI50 (LOX IMVI)?
**A.** 18.1 µM (inactive)

**Q.** And the GI50 (HOP-62)?
**A.** 18.3 µM (inactive)

**Q.** What about the GI50 (M14) of the same compound?
**A.** 19.5 µM (inactive)

**Q.** And the GI50 (SK-MEL-2)?
**A.** 22.3 µM (inactive)

**Q.** What about the GI50 (SR) of the same compound?
**A.** 25.1 µM (inactive)

**Q.** What about the GI50 (UO-31) of the same compound?
**A.** 18.9 µM (inactive)

**Q.** What about the GI50 (OVCAR-8) of the same compound?
**A.** 29.2 µM (inactive)

**Q.** And the GI50 (SF-268)?
**A.** 17.7 µM (inactive)

**Q.** What about the GI50 (SNB-75) of the same compound?
**A.** 2.93 µM (inactive)

**Q.** What about the GI50 (NCI-H23) of the same compound?
**A.** 21.9 µM (inactive)

**Q.** What about the GI50 (SNB-78) of the same compound?
**A.** 24.8 µM (inactive)

**Q.** What about the GI50 (NCI-H460) of the same compound?
**A.** > 100 µM (inactive)

**Q.** What about the GI50 (RPMI-8226) of the same compound?
**A.** 20.4 µM (inactive)

**Q.** `C=C(c1ccccc1)C1(O)CCCCC1N` (stereo not given) was tested. Which GI50 (TK-10) did it give?
**A.** > 100 µM (inactive)

**Q.** And the GI50 (A549)?
**A.** > 100 µM (inactive)

**Q.** And the GI50 (HCT-116)?
**A.** > 100 µM (inactive)

**Q.** And the GI50 (UACC-257)?
**A.** > 100 µM (inactive)

**Q.** And the GI50 (HOP-92)?
**A.** > 100 µM (inactive)

**Q.** What about the GI50 (HCC 2998) of the same compound?
**A.** > 100 µM (inactive)

**Q.** What about the GI50 (SN12C) of the same compound?
**A.** > 100 µM (inactive)

**Q.** What about the GI50 (MOLT-4) of the same compound?
**A.** 31.8 µM (inactive)

**Q.** And the GI50 (DLD-1)?
**A.** > 100 µM (inactive)

**Q.** And the GI50 (SW-620)?
**A.** > 100 µM (inactive)

**Q.** And the GI50 (IGROV-1)?
**A.** > 100 µM (inactive)

**Q.** What about the GI50 (U-251) of the same compound?
**A.** > 100 µM (inactive)

**Q.** And the GI50 (RXF 393)?
**A.** > 100 µM (inactive)

**Q.** What about the GI50 (OVCAR-5) of the same compound?
**A.** > 100 µM (inactive)

**Q.** What about the GI50 (HT-29) of the same compound?
**A.** > 100 µM (inactive)

**Q.** What about the GI50 (CCRF-CEM) of the same compound?
**A.** 33.9 µM (inactive)

**Q.** And the GI50 (NCI-H226)?
**A.** > 100 µM (inactive)

**Q.** And the GI50 (SF-295)?
**A.** > 100 µM (inactive)

**Q.** And the GI50 (DMS-114)?
**A.** > 100 µM (inactive)

**Q.** And the GI50 (ACHN)?
**A.** > 100 µM (inactive)

**Q.** What about the GI50 (M19-MEL) of the same compound?
**A.** > 100 µM (inactive)

**Q.** And the GI50 (SK-OV-3)?
**A.** > 100 µM (inactive)

**Q.** And the GI50 (HL-60)?
**A.** 16.6 µM (inactive)

**Q.** What about the GI50 (Malme-3M) of the same compound?
**A.** > 100 µM (inactive)

**Q.** And the GI50 (HOP-18)?
**A.** > 100 µM (inactive)

**Q.** What about the GI50 (HCT-15) of the same compound?
**A.** > 100 µM

**Q.** What about the GI50 (UACC-62) of the same compound?
**A.** > 100 µM (inactive)

**Q.** What about the GI50 (OVCAR-3) of the same compound?
**A.** > 89.5 µM (inactive)

**Q.** And the GI50 (SK-MEL-5)?
**A.** > 100 µM (inactive)

**Q.** And the GI50 (NCI-H522)?
**A.** > 100 µM (inactive)

**Q.** What about the GI50 (OVCAR-4) of the same compound?
**A.** > 100 µM (inactive)

**Q.** And the GI50 (A498)?
**A.** > 100 µM (inactive)

**Q.** What about the GI50 (SK-MEL-28) of the same compound?
**A.** > 100 µM (inactive)

**Q.** And the GI50 (SNB-19)?
**A.** > 100 µM (inactive)

**Q.** And the GI50 (LXFL 529)?
**A.** > 100 µM (inactive)

**Q.** And the GI50 (KM-20L2)?
**A.** > 100 µM (inactive)

**Q.** And the GI50 (SF-539)?
**A.** > 100 µM (inactive)

**Q.** And the GI50 (EKVX)?
**A.** > 100 µM (inactive)

**Q.** And the GI50 (KM12)?
**A.** > 100 µM (inactive)

**Q.** And the GI50 (COLO 205)?
**A.** > 100 µM (inactive)

**Q.** And the GI50 (K562)?
**A.** > 100 µM (inactive)

**Q.** What about the GI50 (DMS-273) of the same compound?
**A.** > 100 µM (inactive)

**Q.** And the GI50 (LOX IMVI)?
**A.** > 100 µM (inactive)

**Q.** What about the GI50 (HOP-62) of the same compound?
**A.** > 100 µM (inactive)

**Q.** And the GI50 (M14)?
**A.** > 100 µM (inactive)

**Q.** And the GI50 (SK-MEL-2)?
**A.** > 100 µM (inactive)

**Q.** And the GI50 (SR)?
**A.** 30.3 µM (inactive)

**Q.** And the GI50 (786-0)?
**A.** > 100 µM (inactive)

**Q.** What about the GI50 (UO-31) of the same compound?
**A.** > 100 µM (inactive)

**Q.** What about the GI50 (OVCAR-8) of the same compound?
**A.** > 100 µM (inactive)

**Q.** And the GI50 (SF-268)?
**A.** > 100 µM (inactive)

**Q.** And the GI50 (SNB-75)?
**A.** > 85.7 µM (inactive)

**Q.** What about the GI50 (NCI-H23) of the same compound?
**A.** > 100 µM (inactive)

**Q.** And the GI50 (SNB-78)?
**A.** > 100 µM (inactive)

**Q.** And the GI50 (NCI-H460)?
**A.** > 100 µM (inactive)

**Q.** And the GI50 (RPMI-8226)?
**A.** 50.7 µM (inactive)

**Q.** What about the GI50 (CAKI-1) of the same compound?
**A.** > 43.2 µM (inactive)
